Laboratory results taken from patent publication US4795752A, “Amide derivatives and antiallergic agents containing the same” (Terumo Kabushiki Kaisha, priority 1985, dated 1989).

Test system: PCA reaction
Assay: PCA reaction-inhibitory effects in rats (passive cutaneous anaphylaxis, oral administration, Evans Blue dye exudation)
Format: in vivo, rats (female Sprague-Dawley)
Details: for Inhibition (%) mean ± SE: one hour before challenge; for ED50: Rattus norvegicus, from the percent inhibition-concentration graph, read-out: ID50 against exudation of the dye
Experimental: DNP-ascaris (1 mg) prepared by combining a swine ascaris extract with 2,4-dinitrophenyl sulfate was mixed with 20 mg of aluminum hydroxide gel. The mixture was administered to rats subcutaneously on the back, and at the same time the animals were intraperitoneally given 2×10^10 dead Bordetella pertussis respectively. The same procedures were repeated after 14 days, and blood sample was obtained after 21 days to produce antisera.
Female Sprague-Dawley strain rats (8 weeks old) were sensitized by subcutaneously administering 0.1 ml of 1:256 diluted antisera (titer=1024)respectively on the grained back. After 48 hours, groups of four rats were orally given the amide derivatives produced in the examples above at various concentrations. After one hour, the rats were challenged by intravenously administering a 0.5% physiological saline solution of Evans Blue containing 1 mg of the DNP-ascaris from the tail. After 30 minutes, the animal was sacrificed by bleeding and the portion of the skin with the dye exuded was cut off. The cut skin was treated with 1N--KOH solution, and the dye was extracted by adding 9 ml of 0.6N-phosphoric acid-acetone (5:13) mixture. The supernatant from centrifugal separation was measured for absorbancy at 620 nm to determine amount of the dye. Percent inhibition at each of the concentrations of the amide derivatives was calculated in comparison with amount of the dye for control group. 50% Inhibitory concentration (ID50) of the amide derivatives against exudation of the dye was determined from the percent inhibition-concentration graph. Results are shown in Table-I. Percent inhibition of tranilast, an antiallergic agent commercially available from Kissei Pharmaceutical Co., Ltd. under the trade name of Rizaben against PCA reaction was also shown in Table-I. As shown in Table-I, the amide derivatives of the invention produced high PCA reaction-inhibitory effects.

Row | SMILES | Inhibition (%) mean ± SE (100 mg/kg) | Inhibition (%) mean ± SE (200 mg/kg) | Inhibition (%) mean ± SE (300 mg/kg) | ED50 | Inhibition (%) mean ± SE (3 mg/kg) | Inhibition (%) mean ± SE (10 mg/kg) | Inhibition (%) mean ± SE (30 mg/kg)
1 | COc1ccc(/C=C/C(=O)Nc2ccccc2C(=O)O)cc1OC [Control, tranilast, reference compound] | 37 ± 8% | 40 ± 10% | 42 ± 5% | > 300 mg/kg | – | – | –
2 | CCOC(=O)Oc1ccc(/C=C/C=C/C(=O)NCCN2CCC(OC(c3ccccc3)c3ccccc3)CC2)cc1OC [Example 1, 1-[2-[5-(3-methoxy-4-ethoxycarbonyloxyphenyl)-2,4-pentadienoyl]aminoethyl]-4-benzhydroxypiperidine] | – | – | – | 10 mg/kg | 26 ± 15% | 51 ± 18% | 71 ± 6%
3 | CCOC(=O)Oc1ccc(/C=C/C(=O)NCCN2CCC(OC(c3ccccc3)c3ccccc3)CC2)cc1OC [Example 2, 1-[2-[3-(3-methoxy-4-ethoxycarbonyloxyphenyl)-2-propenoyl]-aminoethyl]-4-benzhydroxypiperidine] | – | – | – | 15 mg/kg | 20 ± 15% | 41 ± 16% | 64 ± 5%
4 | CCOC(=O)Oc1ccc(/C=C/C=C/C(=O)NCCCN2CCN(C(c3ccccc3)c3ccccc3)CC2)cc1OC [Example 3, 1-[3-[5-(3-methoxy-4-ethoxycarbonyloxyphenyl)-2,4-pentadienoyl]aminopropyl]-4-benzhydrylpiperazine] | 63 ± 5% | – | – | 55 mg/kg | – | 19 ± 14% | 38 ± 15%
5 | CCOC(=O)Oc1ccc(/C=C/C(=O)NCCN2CCC(OC(c3ccccc3)c3ccccc3)CC2)cc1OC(=O)OCC [Example 4] | – | – | – | 12 mg/kg | 22 ± 14% | 46 ± 10% | 68 ± 7%
6 | CCOC(=O)Oc1ccc(/C=C/C=C/C(=O)NCCN2CCC(OC(c3ccccc3)c3ccccc3)CC2)cc1OC(=O)OCC [Example 5, 1-[2-[5-(3,4-diethoxycarbonyloxyphenyl)-2,4-pentadienoyl]aminoethyl]-4-benzhydroxypiperidine] | – | – | – | – | 30 ± 16% | 55 ± 10% | 75 ± 4%
